{
  "source": "patent US20230183643A1",
  "about": "“COMPOSITIONS AND METHODS FOR PRODUCING PLACENTAL CELLS” (Regents of the University of Minnesota, priority 2021, published 2023)",
  "assay_type_in_all_cases": "cell-based, human",
  "key": {"IMR-90-4 hiPSCs [1]": {"system": "IMR-90-4 hiPSCs", "assay": "Immunostaining for pluripotency and lineage-specific markers after treatment", "details": "for CDX2 protein expression (immunostaining): after 5 days incubation, 1 μM RA, 8 μM CHIR-99021, 1 μM SU6656 or RA+CHIR in UM or E6; for Keratin 8 expression (immunostaining): UM+1 μM RA or UM+1 μM SU6656", "procedure": "For differentiation, 70% confluent stem cells were rinsed with DPBS (Gibco) and pre-warmed Accutase was added to the wells. Cells were then placed at 37° C. for 5-7 minutes. Following incubation, cells were removed from the well with a p1000 pipette. The cells in Accutase solution were then added to a conical tube containing an equal volume of fresh media and spun down at 200×g for 5 minutes. The cells were then resuspended and seeded on Matrigel-coated plates at 6,000 cells/cm^2 in TeSR-E8 or mTeSR Plus with 5 μM ROCK inhibitor (Y-27632, Stem Cell Tech). Cells were maintained in E8 or mTeSR Plus for two more days, and then the medium was changed to unconditioned medium (UM): […] RA and/or CHIR were excluded in control experiments (FIG. 1), as described. Cell culture media was changed daily for five days. The induced multipotent placental cells produced by this method are termed iMPC1 cells (also referred herein, as iMPC1-D5 cells). As described herein, the cells may alternatively be exposed to RA+CHIR for 3 or 4 days. For example, iMPC1-D3 and iMPC1-D4, may also be produced wherein the cells are exposed to RA+CHIR for 3 and 4 days, respectively. For immunocytochemistry analysis, cells were rinsed 2× with PBS and then fixed for 10 minutes with 4% paraformaldehyde (PFA) at room temperature. […] Primary antibodies (Table 1A) were diluted into PBSGT and incubated on cells overnight at 4° C. Cells were washed 3× in PBST for 15 minutes, and then secondary antibodies (Table 1B) were diluted 1:500 in PBSGT and incubated on the cells for 1 hour at room temperature. Following a 10-minute PBS wash, cells were incubated with a DAPI solution for 10 minutes. Another 10-minute PBS wash was performed before the cells were imaged on an EVOS microscope."}, "IMR-90-4 hiPSCs [2]": {"system": "IMR-90-4 hiPSCs", "assay": "PCR and qRT-PCR of trophoblast cell marker transcripts and C19 miRNAs", "details": "for CDX2 transcript level (qRT-PCR) / GATA3 transcript level (qRT-PCR) / KLF4 transcript level (qRT-PCR) / KRT7 transcript level (qRT-PCR): 5 days of incubation, compared to UM alone (FIG. 10); for CDX2 mRNA transcript level (PCR / RT-PCR): after 5 days in UM with 1 μM RA, 8 μM CHIR, RA+CHIR or 1 μM SU6656", "procedure": "For differentiation, 70% confluent stem cells were rinsed with DPBS (Gibco) and pre-warmed Accutase was added to the wells. Cells were then placed at 37° C. for 5-7 minutes. Following incubation, cells were removed from the well with a p1000 pipette. The cells in Accutase solution were then added to a conical tube containing an equal volume of fresh media and spun down at 200×g for 5 minutes. The cells were then resuspended and seeded on Matrigel-coated plates at 6,000 cells/cm^2 in TeSR-E8 or mTeSR Plus with 5 μM ROCK inhibitor (Y-27632, Stem Cell Tech). Cells were maintained in E8 or mTeSR Plus for two more days, and then the medium was changed to unconditioned medium (UM): […] RA and/or CHIR were excluded in control experiments (FIG. 1), as described. Cell culture media was changed daily for five days. The induced multipotent placental cells produced by this method are termed iMPC1 cells (also referred herein, as iMPC1-D5 cells). As described herein, the cells may alternatively be exposed to RA+CHIR for 3 or 4 days. For example, iMPC1-D3 and iMPC1-D4, may also be produced wherein the cells are exposed to RA+CHIR for 3 and 4 days, respectively. Cell pellets were collected and lysed using QiaShredder columns (Qiagen). RNA was isolated using the RNeasy Mini Kit (Qiagen) as the manufacturer recommends, including incubation with DNase I (RNAse-free DNase Set, Qiagen). Collected RNA was quantified using a NanoDrop. Reverse transcription was performed on 1000 ng RNA using the Omni script RT Kit (Qiagen). RNA with Oligo-dT primer (Life Tech) was denatured for 5 minutes at 65° C. before the remaining elements were added and incubated at 37° C. for 1 hour. Quantitative real time PCR (qRT-PCR) was performed using iTaq Universal SYBR Green Supermix (Bio Rad) as the manufacturer recommends. Primers (Table 2) were added at 250 nM each (forward and reverse). Analysis was performed on a Bio Rad CFX Connect Real-Time PCR system. GAPDH was used as a reference gene, and error was propagated using the […] method. PCR was performed identically as above through the reverse transcription step to generate cDNA. GoTaq Master Mix (Promega) was used for PCR per the manufacturer's instructions. Primers (Table 2) were added at […] each. PCR products were visualized on a 2% agarose gel containing SYBR Safe (Thermo Fisher) after electrophoresis at […] for 100 minutes. Gels were imaged using a ChemiDoc Touch Gel/Blot Reader (Bio Rad)."}, "IMR-90-4 hiPSCs [3]": {"system": "IMR-90-4 hiPSCs", "assay": "Flow cytometry of CDX2, Oct-4, GATA3 and Keratin 7 in hiPSCs differentiated with RA and/or CHIR", "details": "5 days in UM, 1 μM RA with or without 8 μM CHIR", "procedure": "For differentiation, 70% confluent stem cells were rinsed with DPBS (Gibco) and pre-warmed Accutase was added to the wells. Cells were then placed at 37° C. for 5-7 minutes. Following incubation, cells were removed from the well with a p1000 pipette. The cells in Accutase solution were then added to a conical tube containing an equal volume of fresh media and spun down at 200×g for 5 minutes. The cells were then resuspended and seeded on Matrigel-coated plates at 6,000 cells/cm^2 in TeSR-E8 or mTeSR Plus with 5 μM ROCK inhibitor (Y-27632, Stem Cell Tech). Cells were maintained in E8 or mTeSR Plus for two more days, and then the medium was changed to unconditioned medium (UM): DMEM/F12 with 20% Knockout serum replacement, MEM non-essential amino acids (1×), GlutaMAX (lx, Life Tech), and 0.1 mM β-mercaptoethanol (Sigma), containing 1 μM retinoic acid (RA, Sigma) and […] (Tocris). RA and/or CHIR were excluded in control experiments (FIG. 1), as described. Cell culture media was changed daily for five days. The induced multipotent placental cells produced by this method are termed iMPC1 cells (also referred herein, as iMPC1-D5 cells). […]\nCells were rinsed 2× with PBS and then pre-warmed Accutase was added to the wells. […] Plots shown are representative of a single independent replicate, but medians and standard deviations were calculated from three independent replicates."}},
  "note": "Entries after “also recorded” stand apart in the source; their conditions may differ.",
  "data": [
    {"compound": "Cc1cnc(-c2cnc(NCCNc3ccc(C#N)cn3)nc2-c2ccc(Cl)cc2Cl)[nH]1", "note": "[CHIR-99021, 6-[[2-[[4-(2,4-Dichlorophenyl)-5-(5-methyl-1H-imidazol-2-yl)-2-pyrimidinyl]amino]ethyl]amino]-3-pyridinecarbonitrile]", "values": [
      {"measurement": "CDX2 protein expression (immunostaining)", "setting": "IMR-90-4 hiPSCs [1]", "value": "unable to induce CDX2 protein expression"},
      {"measurement": "CDX2 transcript level (qRT-PCR)", "setting": "IMR-90-4 hiPSCs [2]", "value": "upregulating"},
      {"measurement": "GATA3 transcript level (qRT-PCR)", "setting": "IMR-90-4 hiPSCs [2]", "value": "compromised the expression"},
      {"measurement": "KLF4 transcript level (qRT-PCR)", "setting": "IMR-90-4 hiPSCs [2]", "value": "compromised the expression"},
      {"measurement": "KRT7 transcript level (qRT-PCR)", "setting": "IMR-90-4 hiPSCs [2]", "value": "compromised the expression"},
      {"measurement": "CDX2 mRNA transcript level (PCR / RT-PCR)", "setting": "IMR-90-4 hiPSCs [2]", "value": "low levels of CDX2 expression"}
    ]},
    {"compound": "CC1=C(/C=C/C(C)=C/C=C/C(C)=C/C(=O)O)C(C)(C)CCC1", "note": "[RA, retinoic acid]", "values": [
      {"measurement": "Keratin 18 (KRT18) expression (immunostaining)", "setting": "IMR-90-4 hiPSCs [1]; 1 μM RA in UM, 5 days", "value": "gained expression"},
      {"measurement": "Oct-4 expression (immunostaining)", "setting": "IMR-90-4 hiPSCs [1]; 1 μM RA in UM, 5 days", "value": "lost expression"},
      {"measurement": "lowest concentration tested which resulted in CDX2 expression", "setting": "IMR-90-4 hiPSCs [1]; 5 days in UM, 0.1, 1 and 10 μM RA tested", "value": 1, "unit": "µM"},
      {"measurement": "Keratin 8 expression (immunostaining)", "setting": "IMR-90-4 hiPSCs [1]; 5 days", "value": "expressed in all conditions"},
      {"measurement": "CDX2 protein expression (immunostaining)", "setting": "IMR-90-4 hiPSCs [1]", "value": "gained expression; also recorded: restricted to the RA condition"},
      {"measurement": "CDX2 transcript level (qRT-PCR)", "setting": "IMR-90-4 hiPSCs [2]", "value": "upregulation"},
      {"measurement": "GATA3 transcript level (qRT-PCR)", "setting": "IMR-90-4 hiPSCs [2]", "value": "upregulation"},
      {"measurement": "KLF4 transcript level (qRT-PCR)", "setting": "IMR-90-4 hiPSCs [2]", "value": "upregulation"},
      {"measurement": "KRT7 transcript level (qRT-PCR)", "setting": "IMR-90-4 hiPSCs [2]", "value": "upregulation"},
      {"measurement": "CDX2 mRNA transcript level (PCR / RT-PCR)", "setting": "IMR-90-4 hiPSCs [2]", "value": "heightened expression; also recorded: restricted to the RA condition"},
      {"measurement": "interquartile range (IQR) of CDX2 expression (flow cytometry)", "setting": "IMR-90-4 hiPSCs [3]", "value": 119},
      {"measurement": "CDX2 median expression intensity (flow cytometry)", "setting": "IMR-90-4 hiPSCs [3]; p<0.001", "value": "1348±42"}
    ]},
    {"compound": "CN(C)S(=O)(=O)c1ccc2c(c1)/C(=C/c1cc3c([nH]1)CCCC3)C(=O)N2", "note": "[SU6656]", "values": [
      {"measurement": "Keratin 8 expression (immunostaining)", "setting": "IMR-90-4 hiPSCs [1]; 5 days", "value": "expressed in all conditions"},
      {"measurement": "CDX2 protein expression (immunostaining)", "setting": "IMR-90-4 hiPSCs [1]", "value": "restricted to the RA condition"},
      {"measurement": "CDX2 mRNA transcript level (PCR / RT-PCR)", "setting": "IMR-90-4 hiPSCs [2]", "value": "restricted to the RA condition"}
    ]}
  ]
}
